# Results reported in paper PMC8151276, “An Integrated Approach toward NanoBRET Tracers for Analysis of GPCR Ligand Engagement” (Molecules, 2021).
# Tests used:
# ACKR3 = molecular target: T1, ACKR3 (Homo sapiens, UniProt P25106); experiment: NanoBRET screen HiBiT-ACKR3 in HEK293; assay type: binding
# T1 construct: purchased Promega (in-house HiBiT-GPCR construct library, NanoBRET)
# Experimental: (§1) Each tracer candidate was screened across the entire library of HiBiT-GPCR constructs using NanoBRET as the detection modality. As depicted in Figure 4A, the specificity of interactions was evaluated through decrease in BRET due to competitive displacement of a bound tracer by excess parental compound. Each tracer was analyzed for binding to each HiBiT-GPCR fusion in the absence and in the presence of competing parental compound. Briefly, HEK293 cells were transfected with HiBiT-GPCR constructs diluted into promoterless DNA to reduce expression and maximize translocation to the cell surface. Each tracer candidate was then screened at concentrations of 1 μM and 0.1 μM across cells expressing these fusions. Cells were treated for 1.5 h with tracer either alone or in the presence of 20 μM competing parental compound (i.e., control). BRET was measured upon addition of purified LgBiT and subsequent complementation with HiBiT genetically fused to a GPCR. The specificity of interactions was assessed through a decrease in BRET signal due to competitive displacement of the bound tracer. To further gauge the robustness of these interactions, the fold response over the control (i.e., BRETtracer/BRETcontrol) was calculated. We chose a 1.5-fold response, which translates to ≥7-fold signal over noise as the minimal threshold required to score an interaction as positive. […]. Below we highlight the screening results obtained for our exemplary fluorescent tracers based on Clozapine, Amitriptyline and AZD1283.
# (§2) HiBiT-GPCR DNA constructs were diluted in 10 mM Tris pH 8 to a final concentration of 0.01 μg/μL, arrayed in 96-well plates and stored at −20 °C. For transfection, HEK293 cells were suspended in Opti-MEM (without phenol red) supplemented with 2% fetal bovine serum (Seradigm) and 100 units/mL penicillin–streptomycin (Gibco) at a final concentration of 220,000 cells/mL and dispensed into white 96-well plates at 90 μL/well. Subsequent transfections and screens were carried using an Agilent Bravo Automated Liquid Handling Platform. First, the 96-well HiBiT DNA arrays were diluted 25-fold in Opti-MEM (without serum or phenol red) to a final concentration of 0.0004 μg/μL and 20 μL of the diluted DNAs were transferred into new 96-well plates. Next, promoterless carrier DNA (1 μg/μL) was diluted 25-fold (0.04 μg/μL) and then dispensed into the diluted arrays at 20 μL/well. Following brief mixing, Viafect transfection reagent (Promega) diluted 16-fold into Opti-MEM was dispensed into the plates at 40 μL/well. After mixing by pipetting, plates were incubated for 10 min on the pipetting station deck. The DNA-transfection reagent complexes were then added to plates containing cells. To facilitate the screen, 10 μL of DNA-transfection reagent complexes were added in duplicates to the top 4 and bottom 4 rows, resulting in two identical 48-well arrays per plate. Plates with transfected cells were incubated for 18–20 h at 37 °C/5% CO2. A screen of each tracer across the entire library using two different concentrations requires duplicate plates of transfected cells. Depending on the number of tracers being screened, transfections can be scaled up using the same ratios. The next day, for each tracer, four 20× screening solutions in tracer dilution buffer (Promega) were prepared: two duplicates at final concentration of 20 μM and two duplicates at a final concentration of 2 μM. A competing unmodified compound was added to one of each duplicate at a final concentration of 400 μM. The four resulting solutions were diluted 4-fold in Opti-MEM without serum or phenol red to generate 5× solutions (5 µM and 0.5 µM tracer +/− 100 μM competing compound). To screen the library, a BioTek MultiFlo FX liquid dispenser was used to dispense 22.5 µL of tracer solution to the top 4 rows and 22.5 µL tracer + competing compound solution to the 4 bottom rows. Plates were briefly mixed on an orbital shaker and incubated for 1.5 h at room temperature. […]
# FZD1 = molecular target: T2, FZD1 (Homo sapiens, UniProt Q9UP38); experiment: NanoBRET screen HiBiT-FZD1 in HEK293; assay type: binding
# T2 construct: purchased Promega (in-house HiBiT-GPCR construct library, NanoBRET)
# T2 sequence (Q9UP38 70-647): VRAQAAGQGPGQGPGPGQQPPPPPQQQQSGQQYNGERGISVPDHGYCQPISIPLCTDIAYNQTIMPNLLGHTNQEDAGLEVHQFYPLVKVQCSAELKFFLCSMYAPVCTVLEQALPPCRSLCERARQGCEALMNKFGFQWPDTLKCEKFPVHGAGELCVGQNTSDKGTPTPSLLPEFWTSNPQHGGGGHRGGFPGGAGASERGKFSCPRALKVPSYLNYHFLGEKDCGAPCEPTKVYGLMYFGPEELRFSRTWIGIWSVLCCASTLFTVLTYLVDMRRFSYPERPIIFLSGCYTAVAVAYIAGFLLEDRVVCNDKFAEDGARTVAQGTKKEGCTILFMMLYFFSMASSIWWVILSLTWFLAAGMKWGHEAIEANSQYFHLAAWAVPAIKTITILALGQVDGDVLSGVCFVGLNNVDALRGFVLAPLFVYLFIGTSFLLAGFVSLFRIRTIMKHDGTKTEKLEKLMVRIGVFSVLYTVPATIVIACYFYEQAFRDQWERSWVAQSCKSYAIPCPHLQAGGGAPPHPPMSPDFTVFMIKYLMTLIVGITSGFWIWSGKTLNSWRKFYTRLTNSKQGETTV
# Experimental: as §1, §2
# [1] = tracer at 0.1μM, listed as amitriptyline-b-2-NB590
# [2] = tracer at 1μM, listed as amitriptyline-b-2-NB590
# T1 sequence (P25106 whole entry): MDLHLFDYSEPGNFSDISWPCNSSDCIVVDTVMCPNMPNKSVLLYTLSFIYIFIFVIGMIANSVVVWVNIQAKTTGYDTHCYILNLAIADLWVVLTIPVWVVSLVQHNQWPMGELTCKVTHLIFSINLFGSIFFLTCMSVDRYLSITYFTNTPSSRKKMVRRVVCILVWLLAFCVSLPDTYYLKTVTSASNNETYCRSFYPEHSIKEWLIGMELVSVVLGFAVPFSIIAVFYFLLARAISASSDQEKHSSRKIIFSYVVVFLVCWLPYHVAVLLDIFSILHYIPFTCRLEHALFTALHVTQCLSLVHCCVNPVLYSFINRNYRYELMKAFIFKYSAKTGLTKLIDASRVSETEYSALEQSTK
structure (smiles),measurement,setting,value
CN1CCN(C2=Nc3cc(Cl)ccc3Nc3ccc(CNC(=O)CCOCCOCCOCCOCCNC(=O)CCc4ccc5n4[B-](F)(F)[N+]4=C(c6ccc[nH]6)C=CC4=C5)cc32)CC1 [Clozapine-b-2-NB590],NanoBRET Fold Response,"ACKR3; ACKR3, 0.1μM tracer",0.95
same,NanoBRET Fold Response,"ACKR3; ACKR3, 1μM tracer",1.05
same,NanoBRET Fold Response,"FZD1; FZD1, 0.1μM tracer",1.00
same,NanoBRET Fold Response,"FZD1; FZD1, 1μM tracer",0.99
CN(C)CCC=C1c2ccccc2CCc2ccc(C(=O)NCCNC(=O)CCOCCOCCOCCOCCNC(=O)CCc3ccc4n3[B-](F)(F)[N+]3=C(c5ccc[nH]5)C=CC3=C4)cc21 [Amitriptyline-b-2-NB590],NanoBRET Fold Response,ACKR3; [1],1.17
same,NanoBRET Fold Response,ACKR3; [2],1.07
same,NanoBRET Fold Response,FZD1; [1],0.97
same,NanoBRET Fold Response,FZD1; [2],1.14
CCOC(=O)c1cc(C#N)c(N2CCC(C(=O)NS(=O)(=O)Cc3ccccc3/C=C/C(=O)NCCNC(=O)CCc3ccc4n3[B-](F)(F)[N+]3=C(c5ccc[nH]5)C=CC3=C4)CC2)nc1C [AZD1283-1-NB590],NanoBRET Fold Response,"ACKR3; ACKR3, 0.1μM",1.06
same,NanoBRET Fold Response,"ACKR3; ACKR3, 1μM",1.19
same,NanoBRET Fold Response,"FZD1; FZD1, 0.1μM",1.06
same,NanoBRET Fold Response,"FZD1; FZD1, 1μM",1.07
CC(C)N(CC[C@H](c1ccccc1)c1cc(CCNC(=O)CCOCCOCCOCCOCCNC(=O)CCc2ccc3n2[B-](F)(F)[N+]2=C(c4ccc[nH]4)C=CC2=C3)ccc1O)C(C)C [Tolterodine-2-NB590],NanoBRET Fold Response,"ACKR3; ACKR3, tracer 0.1μM",0.96
same,NanoBRET Fold Response,"ACKR3; ACKR3, tracer 1μM",1.00
same,NanoBRET Fold Response,"FZD1; FZD1, tracer 0.1μM",0.97
same,NanoBRET Fold Response,"FZD1; FZD1, tracer 1μM",0.97
CC(C)N(CC[C@H](c1ccccc1)c1cc(CCNC(=O)c2ccc(CNC(=O)CCc3ccc4n3[B-](F)(F)[N+]3=C(c5ccc[nH]5)C=CC3=C4)cc2)ccc1O)C(C)C [Tolterodine-BZ-NB590],NanoBRET Fold Response,"ACKR3; ACKR3, tracer 0.1μM",0.88
same,NanoBRET Fold Response,"ACKR3; ACKR3, tracer 1μM",0.96
same,NanoBRET Fold Response,"FZD1; FZD1, tracer 0.1μM",1.04
same,NanoBRET Fold Response,"FZD1; FZD1, tracer 1μM",0.95
O=C(CCOCCOCCOCCOCCNC(=O)CCc1ccc2n1[B-](F)(F)[N+]1=C(c3ccc[nH]3)C=CC1=C2)NCCCN1CCN(C2=Nc3ccccc3Oc3ccc(Cl)cc32)CC1 [Loxapine-a-2-NB590],NanoBRET Fold Response,"ACKR3; ACKR3, tracer 0.1μM",0.30
same,NanoBRET Fold Response,"ACKR3; ACKR3, tracer 1μM",1.02
same,NanoBRET Fold Response,"FZD1; FZD1, tracer 0.1μM",1.17
same,NanoBRET Fold Response,"FZD1; FZD1, tracer 1μM",1.03
CN1CCN(C2=Nc3cc(Cl)ccc3N(CC(=O)NCCOCCOCCOCCOCCNC(=O)CCc3ccc4n3[B-](F)(F)[N+]3=C(c5ccc[nH]5)C=CC3=C4)c3ccccc32)CC1 [Clozapine-c-2-NB590],NanoBRET Fold Response,"ACKR3; ACKR3, 1μM tracer",0.92
same,NanoBRET Fold Response,"FZD1; FZD1, 0.1μM tracer",1.02
same,NanoBRET Fold Response,"FZD1; FZD1, 1μM tracer",1.06
CN(C)CCC=C1c2ccccc2CCc2ccc(C(=O)NCCNC(=O)CCOCCOCCOCCOCCNC(=O)CCc3ccc4n3[B-](F)(F)[N+]3=C(c5ccc[nH]5)C=CC3=C4)cc21 [Amitriptyline-a-2-NB590],NanoBRET Fold Response,ACKR3; tracer at 0.1μM,1.15
same,NanoBRET Fold Response,ACKR3; tracer at 1μM,0.99
same,NanoBRET Fold Response,FZD1; tracer at 0.1μM,0.92
same,NanoBRET Fold Response,FZD1; tracer at 1μM,0.98
Cc1nc2n(c(=O)c1CCN1CCC(c3noc4cc(F)ccc34)CC1)CCCC2OC(=O)NCCOCCOCCOCCOCCNC(=O)CCc1ccc2n1[B-](F)(F)[N+]1=C(c3ccc[nH]3)C=CC1=C2 (stereo not drawn) [Risperidone-2-NB590],NanoBRET Fold Response,"ACKR3; ACKR3, tracer 0.1μM",1.07
same,NanoBRET Fold Response,"ACKR3; ACKR3, tracer 1μM",1.36
same,NanoBRET Fold Response,"FZD1; FZD1, tracer 0.1μM",1.02
same,NanoBRET Fold Response,"FZD1; FZD1, tracer 1μM",1.00
COc1ccc2[nH]c(-c3ccc(CNC(=O)CCOCCOCCOCCOCCNC(=O)CCc4ccc5n4[B-](F)(F)[N+]4=C(c6ccc[nH]6)C=CC4=C5)cc3)c(CCNC(C)=O)c2n1 [AzomelatoninICO9-2-NB590],NanoBRET Fold Response,ACKR3; 0.1μM tracer,1.40
same,NanoBRET Fold Response,ACKR3; 1μM tracer,0.83
same,NanoBRET Fold Response,FZD1; 0.1μM tracer,0.86
same,NanoBRET Fold Response,FZD1; 1μM tracer,1.05
